Assay results reported in ChEMBL document CHEMBL4431320 (J Med Chem, 2016).
Active and inactive are the calls of the source. No cut-off for these calls is given here.

Legend:
[1] = biological target: Cholinesterase (Equus caballus) (UniProt P81908); test: Inhibition of equine BuChE at 10 uM using ACTI as substrate preincubated for 29 mins followed by substrate addition measured at 1 min intervals for 10 mins by Ellman's assay
[2] = biological target: Acetylcholinesterase (Electrophorus electricus) (UniProt O42275); test: Inhibition of electric eel AChE at 10 uM using ACTI as substrate preincubated for 29 mins followed by substrate addition measured at 1 min intervals for 10 mins by Ellman's assay
[3] = biological target: Cholinesterase (Equus caballus, UniProt P81908)
Description: Inhibition of equine BuChE using ACTI as substrate preincubated for 29 mins followed by substrate addition measured at 1 min intervals for 10 mins by Ellman's assay

[4] = biological target: Acetylcholinesterase (Homo sapiens) (UniProt P22303); test: Inhibition of human AChE at 10 uM using ACTI as substrate incubated for 40 mins measured at 1 min intervals for 10 mins by Ellman's assay
[5] = Selectivity ratio of IC50 for equine BuChE to IC50 for human BuChE
[6] = Stability of compound in crystallization buffer at pH 7.4 at 0.1 mg/mL incubated for 24 hrs by RP-HPLC analysis; assay type: physicochemical; conditions: pH 7.4, 24 h
[7] = Stability of compound in crystallization buffer at pH 7.4 at 0.1 mg/mL incubated for 24 hrs by RP-HPLC analysis in presence of equine BuChE; assay type: physicochemical; conditions: pH 7.4, 24 h
[8] = Permeability of compound at 10 uM after 4 hrs by PAMPA; assay type: ADME; conditions: read-out: permeability
[9] = tested on: SH-SY5Y; test: Cytotoxicity against human SH-SY5Y cells at 0.5 to 10 uM after 48 hrs by MTT assay; assay type: cell-based
[10] = biological target: Cholinesterase (Homo sapiens, UniProt P06276)
Cholinesterase (Homo sapiens, UniProt P06276), sequence (P06276 whole entry): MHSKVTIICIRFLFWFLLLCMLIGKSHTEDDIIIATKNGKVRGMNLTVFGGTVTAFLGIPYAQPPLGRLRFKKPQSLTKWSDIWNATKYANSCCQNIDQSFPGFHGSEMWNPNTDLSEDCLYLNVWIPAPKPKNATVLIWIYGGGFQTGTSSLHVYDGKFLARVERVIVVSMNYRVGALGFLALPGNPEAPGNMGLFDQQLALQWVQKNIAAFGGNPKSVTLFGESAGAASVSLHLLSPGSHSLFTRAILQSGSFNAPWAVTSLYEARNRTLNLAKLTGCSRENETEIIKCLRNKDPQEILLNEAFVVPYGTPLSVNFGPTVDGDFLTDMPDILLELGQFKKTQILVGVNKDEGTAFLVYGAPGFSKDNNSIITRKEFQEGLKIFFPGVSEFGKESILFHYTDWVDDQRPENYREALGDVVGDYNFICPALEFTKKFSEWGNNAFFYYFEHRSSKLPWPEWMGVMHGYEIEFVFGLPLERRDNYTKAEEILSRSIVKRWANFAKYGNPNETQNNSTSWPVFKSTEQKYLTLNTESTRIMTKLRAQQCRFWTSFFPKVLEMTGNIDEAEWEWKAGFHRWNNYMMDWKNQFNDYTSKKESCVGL
Description: Inhibition of human BuChE using ACTI as substrate incubated for 40 mins measured at 1 min intervals for 10 mins by Ellman's assay

Cholinesterase (Equus caballus, UniProt P81908), sequence (P81908 whole entry): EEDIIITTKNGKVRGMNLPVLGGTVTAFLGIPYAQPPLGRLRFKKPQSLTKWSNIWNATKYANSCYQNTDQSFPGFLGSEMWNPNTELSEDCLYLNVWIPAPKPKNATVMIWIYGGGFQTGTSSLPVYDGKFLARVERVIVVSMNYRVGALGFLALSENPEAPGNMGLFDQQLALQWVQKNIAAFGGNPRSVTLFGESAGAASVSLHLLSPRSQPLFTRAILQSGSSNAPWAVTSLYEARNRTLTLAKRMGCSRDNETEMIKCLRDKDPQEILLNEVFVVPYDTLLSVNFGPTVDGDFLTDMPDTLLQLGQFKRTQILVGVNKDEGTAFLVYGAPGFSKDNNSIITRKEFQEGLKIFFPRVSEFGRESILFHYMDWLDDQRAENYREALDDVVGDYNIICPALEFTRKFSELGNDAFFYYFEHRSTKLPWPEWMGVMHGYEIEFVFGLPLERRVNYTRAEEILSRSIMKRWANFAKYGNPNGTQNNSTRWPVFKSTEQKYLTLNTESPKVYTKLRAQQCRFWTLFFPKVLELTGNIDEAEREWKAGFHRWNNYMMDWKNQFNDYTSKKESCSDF
Cholinesterase (Equus caballus), sequence (P81908 whole entry): as above
Acetylcholinesterase (Electrophorus electricus), sequence (O42275 24-633 limits assumed): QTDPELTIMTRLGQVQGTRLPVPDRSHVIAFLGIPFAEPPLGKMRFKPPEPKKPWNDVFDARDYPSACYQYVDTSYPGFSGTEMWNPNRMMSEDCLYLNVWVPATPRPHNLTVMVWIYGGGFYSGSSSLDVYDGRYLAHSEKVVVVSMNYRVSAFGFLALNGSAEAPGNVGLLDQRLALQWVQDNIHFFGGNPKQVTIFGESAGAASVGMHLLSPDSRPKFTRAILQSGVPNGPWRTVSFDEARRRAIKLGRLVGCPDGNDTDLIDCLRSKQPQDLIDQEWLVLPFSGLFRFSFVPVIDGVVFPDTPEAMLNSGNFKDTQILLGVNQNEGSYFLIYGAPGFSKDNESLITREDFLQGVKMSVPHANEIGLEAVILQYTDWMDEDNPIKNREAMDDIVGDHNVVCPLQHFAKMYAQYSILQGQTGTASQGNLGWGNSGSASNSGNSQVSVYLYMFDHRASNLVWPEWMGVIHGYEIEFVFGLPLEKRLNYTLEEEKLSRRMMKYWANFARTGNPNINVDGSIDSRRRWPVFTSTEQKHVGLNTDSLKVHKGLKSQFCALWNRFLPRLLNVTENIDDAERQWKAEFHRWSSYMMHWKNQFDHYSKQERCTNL
Acetylcholinesterase (Homo sapiens), sequence (P22303 whole entry): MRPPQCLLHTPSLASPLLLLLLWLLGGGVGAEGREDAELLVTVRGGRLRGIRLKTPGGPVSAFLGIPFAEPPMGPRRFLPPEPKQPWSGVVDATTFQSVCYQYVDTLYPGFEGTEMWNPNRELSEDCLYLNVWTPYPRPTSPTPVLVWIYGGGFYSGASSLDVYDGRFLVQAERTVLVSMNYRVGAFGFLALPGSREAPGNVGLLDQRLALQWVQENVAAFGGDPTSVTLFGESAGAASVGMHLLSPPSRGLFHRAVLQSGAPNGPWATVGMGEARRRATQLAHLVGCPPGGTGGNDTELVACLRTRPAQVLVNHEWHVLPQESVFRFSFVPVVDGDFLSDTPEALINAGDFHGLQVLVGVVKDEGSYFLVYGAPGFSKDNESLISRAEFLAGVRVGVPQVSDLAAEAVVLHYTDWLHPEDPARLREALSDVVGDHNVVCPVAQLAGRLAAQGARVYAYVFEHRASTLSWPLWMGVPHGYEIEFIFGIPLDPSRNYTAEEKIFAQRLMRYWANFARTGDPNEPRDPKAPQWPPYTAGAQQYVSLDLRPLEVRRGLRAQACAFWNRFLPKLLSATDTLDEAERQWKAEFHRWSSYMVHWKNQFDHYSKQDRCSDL

Row | SMILES | inhibition [1] | inhibition [2] | further results
1 | Cc1cc2nc([C@@H]3CCCN3C(=O)[C@H]3C[C@@H](O)CN3Cc3ccccc3)[nH]c2cc1C | 17.5% | inactive | IC50 [3]: 46.8 µM
2 | CCC(C)OC(=O)C1=C(C)NC2=C(C(=O)CC(C)(C)C2)C1c1ccc2c(c1)c1ccccc1n2CC (stereo unspecified) | inactive |  | 
3 | Cc1cc(C)n(C[C@H](O)CN(Cc2nc3ccccc3[nH]2)Cc2ccco2)n1 | 6.33% | 2.32% | 
4 | CCCCOC(=O)C1=C(C)NC2=C(C(=O)CCC2)C1c1ccc2c(c1)c1ccccc1n2CC (stereo unspecified) | 53.7% |  | 
5 | CCn1c2ccccc2c2cc([C@@H]3C(C(=O)OCCOC)=C(C)NC4=C3C(=O)CCC4)ccc21 | 52.7% | 1.35% | IC50 [3]: 9.72 µM
6 | O=C(Cn1cc(C(=O)C2CC2)c2ccccc21)NCCc1c[nH]c2ccccc12 | 7.28% | 3.44% | 
7 | COc1ccccc1NC(=O)Cn1c(CCC(=O)O)ccc1-c1ccccc1 | 5.54% | 2.2% | 
8 | O=C(CS[C@@H]1CC(=O)N(c2ccccc2)C1=O)Nc1ccccc1F | 6.01% | 0.484% | 
9 | CCOC(=O)N1CCN([C@H]2CC(=O)N(c3cccc4ccccc34)C2=O)CC1 | 1.85% | 4.93% | 
10 | CN(CC(=O)Nc1ccccc1F)S(=O)(=O)c1ccc2ccccc2c1 | 5.64% | 3.43% | 
11 | Cc1ccccc1-n1nc(C)c(CN(CCN(C)C)Cc2ccccn2)c1C | 31.9% | 2.46% | IC50 [3]: 19.2 µM
12 | O[C@H](CN1CCN(c2ccccc2)CC1)c1c[nH]c2ccc(F)cc12 | 1.31% | 2.69% | 
13 | O=C(O)[C@H](Cc1c[nH]c2ccccc12)Nc1ncnc2c1oc1ccccc12 | 7.18% | 1.45% | 
14 | CCSCCOC(=O)C1=C(C)NC2=C(C(=O)CCC2)C1c1ccc2c(c1)c1ccccc1n2CC (stereo unspecified) | 51.2% |  | 
15 | CCn1c2ccccc2c2cc(C3C(C(=O)OC)=C(C)NC4=C3C(=O)CCC4)ccc21 (stereo unspecified) | 49.5% |  | 
16 | CCOCCOC(=O)C1=C(C)NC2=C(C(=O)CC(C)(C)C2)C1c1ccc2c(c1)c1ccccc1n2CC (stereo unspecified) | 2.49% |  | 
17 | CCn1c2ccccc2c2cc(C3C(C(=O)OC4CCCC4)=C(C)NC4=C3C(=O)CC(C)(C)C4)ccc21 (stereo unspecified) | 2.53% |  | 
18 | Cc1cccc(C2(O)CCN(Cc3c(-c4cccs4)[nH]c4ncccc34)CC2)c1 | 16.2% | 2.14% | IC50 [3]: 48.9 µM
19 | CCn1c2ccccc2c2cc(C3C(C(=O)OCC4CCCO4)=C(C)NC4=C3C(=O)CCC4)ccc21 (stereo unspecified) | 84.2% | 1.73% | inhibition [4]: inactive; Ratio IC50 [5]: 2; Stability [6]: Stable; Stability [7]: Stable; Papp at 4 h, 10 µM [8]: 2.46 ×10⁻⁶ cm/s; Activity [9]: Non-Toxic; IC50 [3]: 0.763 µM; IC50 [10]: 0.443 µM
20 | CCCCSc1nc2c(c(=O)[nH]c(=O)n2C)n1C[C@@H](O)COc1cccc2ccccc12 | 3.69% | 5.34% | 
